System: T1, Rhus vernicifera laccase (free laccase)
T1 construct: gene urishiol oxidase
Settings: free enzyme; 100 mM sodium citrate buffer, optimum pH (3.5), 25°C; ABTS 0.05-20.0 mM

## CCn1c(=NN=c2sc3cc(S(=O)(=O)O)ccc3n2CC)sc2cc(S(=O)(=O)O)ccc21 [ABTS, 2,2'-azino-bis (3-ethylbenzothiazoline-6-sulfonic acid)]
  Km: 1720 ± 380 µM
